The text below walks through data of article PMC3017812 (Chembiochem : a European journal of chemical biology, 2010).

The experiment deals with His-tagged MDM2 (Homo sapiens, UniProt Q00987). In words: competitive fluorescence polarization binding assay.

`CC(C)C[C@H](NC(=O)[C@H](CC(=O)O)NC(=O)[C@H](CO)NC(=O)[C@H](Cc1ccccc1)N1C/C=C/CCC(=O)N[C@@H](CCC(=O)O)C(=O)N[C@@H](C)C1=O)C(=O)N[C@@H](Cc1c[nH]c2ccccc12)C(=O)N[C@@H](CCCCN)C(=O)N[C@@H](CC(C)C)C(=O)N[C@@H](CC(C)C)C(=O)N1CCC[C@H]1C(=O)N[C@@H](CCC(=O)O)C(=O)N[C@@H](CC(N)=O)C(=O)N[C@@H](CC(N)=O)C(=O)N[C@H](C(N)=O)C(C)C` [HBS 2]: the “fold lower affinity for MDM2 relative to peptide 1” value (fluorescence polarization assay, compared with unconstrained peptide 1) was “seven-fold lower affinity”. For the molecule “HBS 3: negative control of 2, Phe-19 and Leu-26 mutated to alanine (EAASDLWKLAPENNV)”, the Kd (read-out: KD, binding affinity for MDM2, competitive fluorescence polarization assay, His-tagged MDM2) was more than 125 µM.

One may read the Kd as the equilibrium constant for the complex coming apart.
